Reference: US9518041B2, “(+)-5-(3,4-difluorophenyl)-5-[(3-methyl-2-oxopyridin-1(2H)-yl)methyl]imidazolidine-2,4-dione and drug containing same” (KAKEN PHARMACEUTICAL CO., LTD., priority 2013, dated 2016)

Assays:
human MMP-14 = biological target: T1, human MMP-14 (Homo sapiens, UniProt P50281); experiment: MMP-14 inhibition test; type: biochemical; details: read-out: Inhibitory activity (IC50, nM) MMP-14
T1 construct: purchased Calbiochem 475935
Method: (§1) MMP inhibition tests can be carried out, for example, using a fluorescent synthetic substrate based on the methods described in Bickett et al. (D. Mark Bickett et al., Anal. Biochem., 1993, 212, 58-64) and Nagase et al. (H. Nagase et al., J. Biol. Chem., 1994, 269, 20952-20957). The method for each MMP inhibition test is shown below.
(§2) 90 μL (1.9 ng) of human MMP-14 (Calbiochem #475935) prepared with an assay buffer A was added to 90 μL of a 20 μM fluorescent substrate (Dnp-Pro-Cha-Gly-Cys(Me)-His-Ala-Lys(Nma)-NH2) (SEQ ID NO: 2) prepared with an assay buffer B, and reacted at 37° C. for 5 hours. Enzyme activity was then determined by measuring with a fluorescence intensity meter (Labsystems, Fluoroskan Ascent) at an excitation wavelength of 355 nm and a measurement wavelength of 460 nm.
(§3) From the enzyme activity in the presence or the absence of the test substance, the inhibition rate was determined, and the 50% inhibitiory concentration (IC50) of the test substance was calculated.

human MMP-3 = biological target: T2, human MMP-3 (Homo sapiens, UniProt P08254); experiment: MMP-3 inhibition test; type: biochemical; details: read-out: Inhibitory activity (IC50, nM) MMP-3
T2 construct: purchased Calbiochem 444217
T2 sequence (P08254 100-272 limits assumed): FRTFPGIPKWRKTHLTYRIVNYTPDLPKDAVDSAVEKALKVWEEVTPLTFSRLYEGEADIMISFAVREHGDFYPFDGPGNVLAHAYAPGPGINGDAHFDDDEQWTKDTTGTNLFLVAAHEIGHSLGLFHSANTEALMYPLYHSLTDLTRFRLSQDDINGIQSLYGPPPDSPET
Method: as §1
90 μL (1.5 ng) of human MMP-3 (Calbiochem #444217) prepared with an assay buffer A was added to 90 μL of a 20 μM fluorescent substrate NFF-3 (MOCAc((7-methoxycoumarin-4-yl)acetyl)-Arg-Pro-Lys-Pro-Val-Glu-Nva-Trp-Arg-Lys(Dnp)-NH2, Peptide Institute Inc., #3168-v) (SEQ ID NO: 4) prepared with an assay buffer B, and reacted at 37° C. for 4 hours. Enzyme activity was then determined by measuring with a fluorescence intensity meter (Labsystems, Fluoroskan Ascent) at an excitation wavelength of 320 nm and a measurement wavelength of 405 nm.
as §3

TACE = biological target: T3, TACE (Homo sapiens, UniProt P78536); experiment: TACE inhibition test (in vitro), fluorescent synthetic substrate; type: biochemical; details: 37° C., 1.5 hours, read-out: TACE inhibitory activity, IC50 value
T3 construct: made in house; host or cells: mammalian cells or insect cells
T3 sequence (P78536 215-824): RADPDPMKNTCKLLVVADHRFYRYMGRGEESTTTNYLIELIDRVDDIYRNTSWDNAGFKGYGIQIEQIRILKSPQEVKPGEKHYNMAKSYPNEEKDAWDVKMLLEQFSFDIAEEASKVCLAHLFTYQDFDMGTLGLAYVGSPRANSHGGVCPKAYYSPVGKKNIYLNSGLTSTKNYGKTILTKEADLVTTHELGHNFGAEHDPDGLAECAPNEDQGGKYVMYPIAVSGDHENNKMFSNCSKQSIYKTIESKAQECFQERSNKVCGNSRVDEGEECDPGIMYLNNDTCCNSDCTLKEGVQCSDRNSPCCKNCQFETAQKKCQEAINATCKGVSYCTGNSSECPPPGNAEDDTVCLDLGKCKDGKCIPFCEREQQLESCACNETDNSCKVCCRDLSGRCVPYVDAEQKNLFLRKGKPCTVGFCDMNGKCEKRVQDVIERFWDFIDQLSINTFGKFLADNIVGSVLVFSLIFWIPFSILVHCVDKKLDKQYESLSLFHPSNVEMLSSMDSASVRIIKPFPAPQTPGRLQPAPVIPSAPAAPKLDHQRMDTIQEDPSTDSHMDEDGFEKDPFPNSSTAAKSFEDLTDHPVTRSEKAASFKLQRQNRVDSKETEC
Method: The nucleotide sequence of TACE has been reported by Moss et al. (Moss, M. L. et al., Nature 1997, 385, 733-736). Accordingly, the cDNA of TACE was obtained according to the prescribed method from THP-1 cells or the like, and then incorporated the cDNA into an expression vector. Next, this vector was transformed into mammalian cells or insect cells, and TACE expression was obtained. […]
Namely, 90 μL of an enzyme solution prepared with an assay buffer A (50 mM tris-hydrochloric acid buffer (pH 7.5) including 200 mM sodium chloride, 5 mM calcium chloride, 10 μM zinc sulfate, and 2 mg/mL bovine serum albumin) and 90 μL of a fluorescent synthetic substrate prepared with an assay buffer B (50 mM tris-hydrochloric acid buffer (pH 7.5) including 200 mM sodium chloride, 5 mM calcium chloride, 10 μM zinc sulfate, and 0.05% PLURONIC F-68) were mixed together, and reacted at 37° C. for 1.5 hours. Enzyme activity was then determined by measuring with a fluorescence intensity meter (Labsystems, Fluoroskan Ascent) at an excitation wavelength of 355 nm and a measurement wavelength of 460 nm. […]

[1] = Solubility test in organic solvents (propylene glycol, butylene glycol); type: physicochemical; details: organic solvent or mixture, thermodynamic from solid
Method: Under room temperature conditions, in a 0.5 mL polypropylene tube, (+)-5-(3,4-difluorophenyl)-5-[(3-methyl-2-oxopyridin-1(2H)-yl)methyl]imidazolidine-2,4-dione and (±)-5-(3,4-difluorophenyl)-5-[(3-methyl-2-oxopyridin-1(2H)-yl)methyl]imidazolidine-2,4-dione measured in advance for a suitable amount were prepared, respectively. In each tube, solvent (Propylene glycol (PG) or butylene glycol (BG)) was added with various amounts, e.g. 10 times, 20 times or 100 times amount of the test compound, and stirred with a vortex mixer. With a table ultrasonic washer set at 37° C., ultrasonication treatment was given for 10 minutes; after warming for an hour in a thermostat chamber, each were kept standing for 24 hours at room temperature. The test solutions were observed by sight to evaluate the states in accordance with the determination criterion given below.
Determination criterion consisted of the following two categories:
“Soluble”: Test compound dissolved; no undissolved substances confirmed by visual observation.
“Insoluble”: Test compound remains undissolved; undissolved substances confirmed by visual observation.

human MMP-13 = biological target: T4, human MMP-13 (Homo sapiens, UniProt P45452); experiment: MMP-13 inhibition test; type: biochemical; details: read-out: Inhibitory activity (IC50, nM) MMP-13
T4 construct: purchased Calbiochem 444287
Method: as §1
as §2, with “μL (130” for “μL (1.9”, “human MMP-13” for “human MMP-14”, “(Calbiochem #444287) was mixed with 10 μL of 10 mM APMA, and activated by reacting at 37° C. for 1 hour. 10 μL of the resultant enzyme solution was diluted to 90 μL” for “(Calbiochem #475935) prepared”, “buffer A. The mixture” for “buffer A”, “for 4” for “for 5”
as §3

human MMP-8 = biological target: T5, human MMP-8 (Homo sapiens, UniProt P22894); experiment: MMP-8 inhibition test; type: biochemical; details: read-out: Inhibitory activity (IC50, nM) MMP-8
T5 construct: purchased Calbiochem 444229
T5 sequence (P22894 101-467): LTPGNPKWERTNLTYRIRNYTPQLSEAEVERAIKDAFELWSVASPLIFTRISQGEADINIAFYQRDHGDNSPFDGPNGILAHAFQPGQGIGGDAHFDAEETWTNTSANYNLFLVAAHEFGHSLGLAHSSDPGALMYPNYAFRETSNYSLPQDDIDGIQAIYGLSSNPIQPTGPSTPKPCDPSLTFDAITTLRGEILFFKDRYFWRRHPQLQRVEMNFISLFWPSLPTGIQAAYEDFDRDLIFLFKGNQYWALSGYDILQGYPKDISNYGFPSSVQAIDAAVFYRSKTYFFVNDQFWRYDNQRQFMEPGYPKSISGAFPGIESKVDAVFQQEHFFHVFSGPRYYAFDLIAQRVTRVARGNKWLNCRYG
Method: as §1
90 μL (29 ng) of human MMP-8 (Calbiochem #444229) was mixed with 10 μL of 10 mM APMA, and activated by reacting at 37° C. for 1 hour. 10 μL of the resultant enzyme solution was diluted to 90 μL with an assay buffer A. The mixture was added to 90 μL of a 20 μM fluorescent substrate (MOCAc-Pro-Leu-Gly-Leu-A2pr(Dnp)-Ala-Arg-NH2, Peptide Institute Inc., #3163-v) (SEQ ID NO: 3) prepared with an assay buffer B, and reacted at 37° C. for 5 hours. Enzyme activity was then determined by measuring with a fluorescence intensity meter (Labsystems, Fluoroskan Ascent) at an excitation wavelength of 320 nm and a measurement wavelength of 405 nm.
as §3

Work on `Cc1cccn(CC2(c3ccc(F)c(F)c3)NC(=O)NC2=O)c1=O` (single isomer, unassigned; (+)) [(+)-5-(3,4-difluorophenyl)-5-[(3-methyl-2-oxopyridin-1(2H)-yl)methyl]imidazolidine-2,4-dione] yielded an IC50 (human MMP-14) greater than 10000 nM, an IC50 (human MMP-3) greater than 10000 nM and an IC50 (TACE) of no more than 0.1 µM. It also gave a solubility at 24 h [1] greater than 10000 µg/mL, an IC50 (human MMP-13) greater than 10000 nM and an IC50 (human MMP-8) greater than 10000 nM.
